{"source": "ChEMBL document CHEMBL3593229", "about": "“Identification of a potent 5-phenyl-thiazol-2-ylamine-based inhibitor of FLT3 with activity against drug resistance-conferring point mutations” (Eur J Med Chem, 2015)", "key": {"[1]": {"biological_target": "Receptor-type tyrosine-protein kinase FLT3 (Homo sapiens, UniProt P36888, D835Y)", "assay": "Inhibition of FLT3 ITD D835Y mutant (unknown origin) phosphorylation expressed in HEK293T cells preincubated for 1 hr followed by FLT3 ligand addition for 5 mins by Western blot analysis", "format": "cell-based, HEK-293T"}, "[2]": {"biological_target": "Serine/threonine-protein kinase Sgk2 (Homo sapiens) (UniProt Q9HBY8)", "assay": "Inhibition of human SGK2 at 0.1 uM relative to control"}, "[3]": {"biological_target": "Aurora kinase C (Homo sapiens) (UniProt Q9UQB9)", "sequence (Q9UQB9 whole entry)": "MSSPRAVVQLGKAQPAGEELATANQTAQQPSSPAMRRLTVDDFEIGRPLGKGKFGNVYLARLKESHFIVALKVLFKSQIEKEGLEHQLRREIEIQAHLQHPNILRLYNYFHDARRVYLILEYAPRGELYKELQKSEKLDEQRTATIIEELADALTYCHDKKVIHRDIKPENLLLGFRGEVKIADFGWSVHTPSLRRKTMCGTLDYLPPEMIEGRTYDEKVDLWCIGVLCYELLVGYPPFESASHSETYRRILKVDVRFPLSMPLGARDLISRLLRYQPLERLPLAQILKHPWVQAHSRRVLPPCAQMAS", "assay": "Inhibition of human AURKC at 0.1 uM relative to control"}, "[4]": {"biological_target": "Tyrosine-protein kinase Lyn (Homo sapiens) (UniProt P07948)", "sequence (P07948 2-512 limits assumed)": "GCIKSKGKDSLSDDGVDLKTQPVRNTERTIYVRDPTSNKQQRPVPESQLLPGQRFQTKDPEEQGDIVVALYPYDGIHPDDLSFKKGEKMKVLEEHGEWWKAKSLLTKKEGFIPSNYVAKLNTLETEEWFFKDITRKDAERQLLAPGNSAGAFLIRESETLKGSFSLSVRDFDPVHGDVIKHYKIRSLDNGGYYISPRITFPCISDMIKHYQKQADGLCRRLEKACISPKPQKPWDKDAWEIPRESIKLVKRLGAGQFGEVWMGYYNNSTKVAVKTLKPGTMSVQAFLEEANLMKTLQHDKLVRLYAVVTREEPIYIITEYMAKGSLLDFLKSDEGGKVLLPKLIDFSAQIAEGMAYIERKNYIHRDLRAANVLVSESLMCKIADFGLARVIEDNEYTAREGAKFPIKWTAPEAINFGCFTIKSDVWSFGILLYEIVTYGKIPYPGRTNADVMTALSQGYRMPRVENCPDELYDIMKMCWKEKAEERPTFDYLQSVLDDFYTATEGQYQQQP", "assay": "Inhibition of human LYNB at 0.1 uM relative to control"}, "[5]": {"biological_target": "AMP-activated protein kinase, AMPK (Homo sapiens) (UniProt P54646+O43741+P54619+Q9UGJ0+Q9Y478+Q13131+Q9UGI9)", "assay": "Inhibition of human AMPK A1/B1/G1 at 0.1 uM relative to control", "format": "protein-complex assay"}, "[6]": {"assay": "Oral bioavailability in ICR mouse at 10 mg/kg", "format": "ADME, organism-based", "conditions": "in vivo"}, "[7]": {"biological_target": "Macrophage colony-stimulating factor 1 receptor (Homo sapiens) (UniProt P07333)", "sequence (P07333 whole entry)": "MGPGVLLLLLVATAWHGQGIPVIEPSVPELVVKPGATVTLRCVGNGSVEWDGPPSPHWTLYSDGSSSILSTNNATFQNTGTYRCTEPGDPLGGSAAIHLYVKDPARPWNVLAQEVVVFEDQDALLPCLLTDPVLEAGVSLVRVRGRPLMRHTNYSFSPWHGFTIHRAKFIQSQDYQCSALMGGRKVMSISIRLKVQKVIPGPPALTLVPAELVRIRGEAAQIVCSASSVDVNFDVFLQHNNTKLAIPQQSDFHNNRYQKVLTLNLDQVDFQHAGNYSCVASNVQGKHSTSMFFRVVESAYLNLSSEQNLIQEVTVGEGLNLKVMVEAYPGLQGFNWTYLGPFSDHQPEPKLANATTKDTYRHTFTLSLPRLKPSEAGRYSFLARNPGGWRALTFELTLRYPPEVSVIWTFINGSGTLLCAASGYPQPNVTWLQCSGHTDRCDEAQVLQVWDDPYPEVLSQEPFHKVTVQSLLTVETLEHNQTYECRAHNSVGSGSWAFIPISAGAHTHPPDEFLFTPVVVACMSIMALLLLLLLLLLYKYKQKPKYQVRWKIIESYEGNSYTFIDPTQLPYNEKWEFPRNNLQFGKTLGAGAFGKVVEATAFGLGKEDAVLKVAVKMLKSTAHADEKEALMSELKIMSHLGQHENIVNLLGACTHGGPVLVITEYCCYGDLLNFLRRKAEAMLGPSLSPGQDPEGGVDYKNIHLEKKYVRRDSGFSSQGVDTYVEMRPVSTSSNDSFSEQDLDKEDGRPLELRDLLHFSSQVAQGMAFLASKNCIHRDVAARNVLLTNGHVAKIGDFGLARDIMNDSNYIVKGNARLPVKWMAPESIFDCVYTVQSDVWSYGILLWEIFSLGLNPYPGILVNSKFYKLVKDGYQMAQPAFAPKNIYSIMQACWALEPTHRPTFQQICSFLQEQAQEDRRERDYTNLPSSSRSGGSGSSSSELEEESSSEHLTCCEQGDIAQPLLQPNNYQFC", "assay": "Inhibition of human CSF1R at 0.1 uM relative to control"}, "[8]": {"biological_target": "Fibroblast growth factor receptor 1 (Homo sapiens) (UniProt P11362)", "sequence (P11362 22-822 limits assumed)": "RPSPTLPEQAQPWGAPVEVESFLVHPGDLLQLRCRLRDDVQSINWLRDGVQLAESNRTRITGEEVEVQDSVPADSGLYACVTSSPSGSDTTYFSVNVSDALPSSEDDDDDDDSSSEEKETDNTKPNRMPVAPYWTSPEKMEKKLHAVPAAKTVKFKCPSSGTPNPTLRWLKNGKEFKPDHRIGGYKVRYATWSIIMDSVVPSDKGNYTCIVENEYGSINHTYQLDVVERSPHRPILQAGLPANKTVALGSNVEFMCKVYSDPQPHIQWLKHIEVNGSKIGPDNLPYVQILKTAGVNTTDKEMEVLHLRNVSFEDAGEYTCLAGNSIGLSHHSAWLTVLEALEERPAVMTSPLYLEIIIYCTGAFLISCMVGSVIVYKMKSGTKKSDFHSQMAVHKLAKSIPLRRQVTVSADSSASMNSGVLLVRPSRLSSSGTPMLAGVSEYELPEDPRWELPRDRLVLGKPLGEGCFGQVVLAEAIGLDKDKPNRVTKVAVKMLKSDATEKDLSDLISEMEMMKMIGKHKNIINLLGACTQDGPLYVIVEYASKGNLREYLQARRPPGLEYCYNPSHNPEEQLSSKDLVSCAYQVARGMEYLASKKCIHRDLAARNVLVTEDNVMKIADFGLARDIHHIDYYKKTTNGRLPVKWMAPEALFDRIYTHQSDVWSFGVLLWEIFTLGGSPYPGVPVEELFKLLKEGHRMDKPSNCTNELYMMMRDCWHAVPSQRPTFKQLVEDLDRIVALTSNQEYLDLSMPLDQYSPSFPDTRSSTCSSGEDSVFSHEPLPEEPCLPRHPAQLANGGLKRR", "assay": "Inhibition of human FGFR1 at 0.1 uM relative to control"}, "[9]": {"biological_target": "T1, Receptor-type tyrosine-protein kinase FLT3 (Homo sapiens, UniProt P36888)", "T1 sequence (P36888 whole entry)": "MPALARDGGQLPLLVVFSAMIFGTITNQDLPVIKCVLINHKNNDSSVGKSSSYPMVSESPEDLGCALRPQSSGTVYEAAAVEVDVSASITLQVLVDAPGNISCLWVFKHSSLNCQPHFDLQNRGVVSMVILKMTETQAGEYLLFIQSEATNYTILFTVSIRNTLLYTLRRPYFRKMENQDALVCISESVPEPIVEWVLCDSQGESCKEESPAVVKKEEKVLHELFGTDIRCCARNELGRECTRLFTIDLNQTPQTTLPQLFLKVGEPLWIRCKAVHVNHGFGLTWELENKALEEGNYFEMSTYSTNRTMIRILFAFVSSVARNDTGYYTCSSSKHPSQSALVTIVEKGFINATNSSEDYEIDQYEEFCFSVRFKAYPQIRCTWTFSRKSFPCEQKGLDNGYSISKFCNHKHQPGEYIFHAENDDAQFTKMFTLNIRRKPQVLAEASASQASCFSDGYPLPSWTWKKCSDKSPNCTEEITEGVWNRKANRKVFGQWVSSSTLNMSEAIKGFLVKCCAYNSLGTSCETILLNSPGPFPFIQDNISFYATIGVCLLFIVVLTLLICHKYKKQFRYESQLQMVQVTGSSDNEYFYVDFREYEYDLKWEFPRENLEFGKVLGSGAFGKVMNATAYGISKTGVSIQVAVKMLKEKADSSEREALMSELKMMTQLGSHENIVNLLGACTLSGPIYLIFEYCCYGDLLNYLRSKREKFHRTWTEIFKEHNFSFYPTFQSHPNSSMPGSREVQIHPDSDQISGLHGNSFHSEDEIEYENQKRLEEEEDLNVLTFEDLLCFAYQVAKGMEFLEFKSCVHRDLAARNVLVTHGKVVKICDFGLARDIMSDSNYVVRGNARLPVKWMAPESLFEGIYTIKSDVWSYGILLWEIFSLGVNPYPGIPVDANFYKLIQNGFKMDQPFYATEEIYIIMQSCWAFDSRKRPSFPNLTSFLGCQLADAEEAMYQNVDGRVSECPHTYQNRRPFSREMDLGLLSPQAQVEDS", "assay": "Inhibition of wild type FLT3 (unknown origin) phosphorylation expressed in HEK293T cells preincubated for 1 hr followed by FLT3 ligand addition for 5 mins by Western blot analysis", "format": "cell-based, HEK-293T"}, "[10]": {"assay": "Half life in ICR mouse at 10 mg/kg, po", "format": "ADME, organism-based", "conditions": "in vivo"}, "[11]": {"system": "Receptor-type tyrosine-protein kinase FLT3 (Homo sapiens), P36888 [D835F]"}, "[12]": {"biological_target": "Vascular endothelial growth factor receptor 1 (Homo sapiens) (UniProt P17948)", "assay": "Inhibition of human FLT1 at 0.1 uM relative to control"}, "[13]": {"biological_target": "Platelet-derived growth factor receptor beta (Homo sapiens) (UniProt P09619)", "assay": "Inhibition of human PDGFRbeta at 0.1 uM relative to control"}, "animal or person": {"assay": "animal or person", "conditions": "Mus musculus, 32D, po, read-out: TGI"}, "[14]": {"biological_target": "Receptor-type tyrosine-protein kinase FLT3 (Homo sapiens) (UniProt P36888)", "conditions": "RS4:11 cell", "description": "Inhibition of wild type homozygous FLT3 in human RS4:11 cells assessed as cell growth inhibition after 72 hrs by MTS assay"}, "[15]": {"biological_target": "Macrophage-stimulating protein receptor (Homo sapiens) (UniProt Q04912)", "assay": "Inhibition of human RON at 0.1 uM relative to control"}, "[16]": {"assay": "Oral bioavailability in Sprague-Dawley rat at 10 mg/kg", "format": "ADME, organism-based", "conditions": "in vivo"}, "U-937": {"system": "U-937", "assay": "cells", "format": "functional", "conditions": "Homo sapiens, U-937, 72 h", "description": "Cytotoxicity against FLT3-deficient human U937 cells assessed as cell growth inhibition after 72 hrs by MTS assay"}, "[17]": {"biological_target": "Mast/stem cell growth factor receptor Kit (Homo sapiens) (UniProt P10721)", "assay": "Inhibition of human KIT at 0.1 uM relative to control"}, "[18]": {"biological_target": "Tyrosine-protein kinase ABL1 (Homo sapiens) (UniProt P00519)", "assay": "Inhibition of human ABL1 at 0.1 uM relative to control"}, "[19]": {"biological_target": "T1, Receptor-type tyrosine-protein kinase FLT3", "assay": "biochemical", "format": "cell-based, Sf9", "description": "Inhibition of wild type GST-tagged FLT3 kinase domain (Y567 to S993) (unknown origin) expressed in baculovirus infected insect Sf9 cells using Her2 peptide as substrate after 4 hrs by Kinase-Glo assay"}, "[20]": {"biological_target": "Serine/threonine-protein kinase Chk2 (Homo sapiens) (UniProt O96017)", "sequence (O96017 whole entry)": "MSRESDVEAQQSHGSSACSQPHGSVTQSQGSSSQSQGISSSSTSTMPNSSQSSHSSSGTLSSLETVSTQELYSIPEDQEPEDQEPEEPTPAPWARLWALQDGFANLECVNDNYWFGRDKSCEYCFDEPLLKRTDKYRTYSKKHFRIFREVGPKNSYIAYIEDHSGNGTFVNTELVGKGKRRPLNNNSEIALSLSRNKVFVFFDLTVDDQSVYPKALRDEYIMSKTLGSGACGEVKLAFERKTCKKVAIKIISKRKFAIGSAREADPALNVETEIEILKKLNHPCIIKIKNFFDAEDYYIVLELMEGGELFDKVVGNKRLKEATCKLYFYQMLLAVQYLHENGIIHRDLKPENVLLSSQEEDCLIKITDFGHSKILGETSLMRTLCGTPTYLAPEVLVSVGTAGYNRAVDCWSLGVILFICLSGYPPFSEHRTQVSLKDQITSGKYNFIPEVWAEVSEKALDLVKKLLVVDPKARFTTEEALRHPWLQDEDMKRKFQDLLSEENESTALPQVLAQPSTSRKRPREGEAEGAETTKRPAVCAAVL", "assay": "Inhibition of human CHK2 at 0.1 uM relative to control"}, "[21]": {"biological_target": "Serine/threonine-protein kinase B-raf (Homo sapiens) (UniProt P15056)", "sequence (P15056 whole entry)": "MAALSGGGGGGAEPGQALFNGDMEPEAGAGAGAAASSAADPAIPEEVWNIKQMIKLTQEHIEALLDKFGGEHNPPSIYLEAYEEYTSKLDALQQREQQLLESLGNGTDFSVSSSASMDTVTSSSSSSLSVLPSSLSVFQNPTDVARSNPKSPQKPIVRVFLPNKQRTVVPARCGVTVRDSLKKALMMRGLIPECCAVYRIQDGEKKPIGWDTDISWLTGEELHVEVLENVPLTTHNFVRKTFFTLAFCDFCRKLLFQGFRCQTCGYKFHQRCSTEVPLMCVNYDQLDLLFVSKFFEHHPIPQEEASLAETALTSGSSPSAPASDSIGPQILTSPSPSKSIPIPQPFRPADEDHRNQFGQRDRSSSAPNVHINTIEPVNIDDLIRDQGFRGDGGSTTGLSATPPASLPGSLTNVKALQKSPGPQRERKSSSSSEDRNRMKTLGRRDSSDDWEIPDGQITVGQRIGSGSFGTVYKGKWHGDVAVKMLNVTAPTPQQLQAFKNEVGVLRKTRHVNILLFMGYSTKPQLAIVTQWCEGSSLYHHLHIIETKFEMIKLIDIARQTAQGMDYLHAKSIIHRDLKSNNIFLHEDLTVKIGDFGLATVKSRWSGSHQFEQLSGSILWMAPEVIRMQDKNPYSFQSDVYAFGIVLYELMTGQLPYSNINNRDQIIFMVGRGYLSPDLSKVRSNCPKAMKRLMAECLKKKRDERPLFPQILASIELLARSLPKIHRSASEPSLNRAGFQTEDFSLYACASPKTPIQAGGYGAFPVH", "assay": "Inhibition of human BRAF at 0.1 uM relative to control"}, "[22]": {"assay": "Plasma clearance in ICR mouse at 2 mg/kg, iv", "format": "ADME, organism-based"}, "[23]": {"biological_target": "Tyrosine-protein kinase CSK (Homo sapiens) (UniProt P41240)", "sequence (P41240 2-450 limits assumed)": "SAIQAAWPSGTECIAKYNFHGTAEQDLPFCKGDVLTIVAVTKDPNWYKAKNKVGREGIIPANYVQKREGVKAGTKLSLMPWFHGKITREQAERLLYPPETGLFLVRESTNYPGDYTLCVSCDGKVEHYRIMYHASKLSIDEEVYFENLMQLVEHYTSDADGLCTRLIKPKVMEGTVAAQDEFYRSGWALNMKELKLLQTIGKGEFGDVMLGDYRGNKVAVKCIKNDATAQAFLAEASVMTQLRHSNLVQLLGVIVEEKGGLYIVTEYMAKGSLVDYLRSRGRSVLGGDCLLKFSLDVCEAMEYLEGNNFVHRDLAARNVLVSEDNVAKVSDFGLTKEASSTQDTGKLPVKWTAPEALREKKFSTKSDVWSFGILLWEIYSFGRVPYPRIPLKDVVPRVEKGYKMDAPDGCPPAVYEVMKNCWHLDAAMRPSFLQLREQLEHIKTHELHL", "assay": "Inhibition of human CSK at 0.1 uM relative to control"}, "[24]": {"system": "Proto-oncogene tyrosine-protein kinase receptor Ret (Homo sapiens), P07949 [V804L]", "assay": "Inhibition of human RET V804L mutant at 0.1 uM relative to control"}, "[25]": {"biological_target": "Tyrosine-protein kinase Fgr (Homo sapiens) (UniProt P09769)", "sequence (P09769 2-529 limits assumed)": "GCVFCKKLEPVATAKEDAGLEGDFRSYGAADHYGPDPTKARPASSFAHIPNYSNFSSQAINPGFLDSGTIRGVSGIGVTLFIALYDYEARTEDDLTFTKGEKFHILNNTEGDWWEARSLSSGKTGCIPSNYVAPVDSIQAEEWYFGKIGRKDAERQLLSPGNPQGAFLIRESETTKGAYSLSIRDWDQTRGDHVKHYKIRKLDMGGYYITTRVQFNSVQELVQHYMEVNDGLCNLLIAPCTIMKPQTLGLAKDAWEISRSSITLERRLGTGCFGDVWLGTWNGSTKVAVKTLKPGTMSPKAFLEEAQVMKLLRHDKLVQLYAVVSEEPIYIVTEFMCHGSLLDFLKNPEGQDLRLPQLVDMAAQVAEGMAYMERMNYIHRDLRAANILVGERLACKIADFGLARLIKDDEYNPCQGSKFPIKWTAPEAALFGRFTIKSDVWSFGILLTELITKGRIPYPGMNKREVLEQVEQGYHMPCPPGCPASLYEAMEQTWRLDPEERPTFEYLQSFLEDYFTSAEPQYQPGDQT", "assay": "Inhibition of human FGR at 0.1 uM relative to control"}, "[26]": {"biological_target": "Receptor-type tyrosine-protein kinase FLT3 (Homo sapiens) (UniProt P36888)", "assay": "Inhibition of human FLT3 at 0.1 uM relative to control"}, "[27]": {"biological_target": "Bcr/Abl fusion protein (Homo sapiens) (UniProt P00519+P11274)", "conditions": "K562", "description": "Inhibition of wild type BCR/ABL in FLT3 deficient human K562 cells assessed as cell growth inhibition after 72 hrs by MTS assay"}}, "data": [{"compound": "CCc1cc(NC(=O)Nc2ccc(-c3cnc(Nc4cc(N5CCN(CC)CC5)nc(C)n4)s3)cc2)no1", "values": [{"measurement": "IC50", "setting": "[1]", "result": 10, "unit": "nM"}, {"measurement": "inhibition", "setting": "[2]", "result": 6, "unit": "%"}, {"measurement": "inhibition", "setting": "[3]", "result": 45, "unit": "%"}, {"measurement": "inhibition", "setting": "[4]", "result": 88, "unit": "%"}, {"measurement": "inhibition", "setting": "[5]", "result": 16, "unit": "%"}, {"measurement": "bioavailability", "setting": "[6]", "result": 35, "unit": "%"}, {"measurement": "inhibition", "setting": "[7]", "result": 94, "unit": "%"}, {"measurement": "inhibition", "setting": "[8]", "result": 10, "unit": "%"}, {"measurement": "IC50", "setting": "[9]", "result": 10, "unit": "nM"}, {"measurement": "half-life", "setting": "[10]", "result": 1.8, "unit": "h"}, {"measurement": "GI50", "setting": "[11]", "result": 38, "unit": "nM"}, {"measurement": "inhibition", "setting": "[12]", "result": 44, "unit": "%"}, {"measurement": "inhibition", "setting": "[13]", "result": 91, "unit": "%"}, {"measurement": "inhibition in vivo at 10 mg/kg/day", "setting": "animal or person", "result": 68, "unit": "%"}, {"measurement": "GI50", "setting": "[14]", "result": 110, "unit": "nM"}, {"measurement": "inhibition", "setting": "[15]", "result": -3, "unit": "%"}, {"measurement": "bioavailability", "setting": "[16]", "result": 20, "unit": "%"}, {"measurement": "GI50", "setting": "U-937", "result": 1100, "unit": "nM"}, {"measurement": "inhibition", "setting": "[17]", "result": 64, "unit": "%"}, {"measurement": "inhibition", "setting": "[18]", "result": 66, "unit": "%"}, {"measurement": "IC50", "setting": "[19]", "result": 38, "unit": "nM"}, {"measurement": "inhibition", "setting": "[20]", "result": -3, "unit": "%"}, {"measurement": "inhibition", "setting": "[21]", "result": 36, "unit": "%"}, {"measurement": "clearance", "setting": "[22]", "result": 82, "unit": "mL/min/kg"}, {"measurement": "inhibition", "setting": "[23]", "result": 23, "unit": "%"}, {"measurement": "inhibition", "setting": "[24]", "result": 65, "unit": "%"}, {"measurement": "inhibition", "setting": "[25]", "result": 89, "unit": "%"}, {"measurement": "inhibition", "setting": "[26]", "result": 98, "unit": "%"}, {"measurement": "GI50", "setting": "[27]", "result": 190, "unit": "nM"}]}]}
